Data published in US8324390B2, “Tetrazole-substituted anthranilamides as pesticides” (Bayer CropScience AG, priority 2008, dated 2012).
Where two headings read alike, the source gives them in different places. Each block holds one molecule with its values, some of them ahead of it.

Assays:
[1] = test system: green peach aphid (Myzus persicae); experiment: Myzus test (MYZUPE spray treatment); format: in vivo; details: Myzus persicae, foliar, read-out: effect in % (aphids killed)
Description: Solvent: 78 parts by weight of acetone
(§1) Solvent: 78.0 parts by weight of acetone

[2] = test system: caterpillars of the armyworm (Spodoptera frugiperda); experiment: Spodoptera frugiperda test (SPODFR spray treatment); format: in vivo; details: Spodoptera frugiperda, foliar, read-out: effect in % (caterpillars killed)
Description: as §1

[3] = log P determination by HPLC (EEC Directive 79/831 Annex V.A8); format: physicochemical
Experimental: The measurements were carried out using an Agilent 1100 LC system with a 50*4.6 Zorbax Eclipse C18 1.8 μm column (oven temperature 55° C., flow rate 2.0 ml/min).
The following mobile phases were used:
Mobile phase A: acetonitrile+1000 μl of formic acid/l
Mobile phase B: Millipore water+900 μl of formic acid/l

[4] = test system: larvae of the mustard beetle (Phaedon cochleariae); experiment: Phaedon test (PHAECO spray treatment); details: Phaedon cochleariae, in Brassica rapa, foliar, read-out: effect in % (beetle larvae killed)
[5] = application rate 100 g/ha, Chinese cabbage leaf discs
[6] = application rate 100 g/ha, maize leaf discs
[7] = reversed-phase HPLC, Zorbax Eclipse C18 column, determined by HPLC according to EEC Directive 79/831 Annex V.A8, read-out: log P

Compound: CCNC(=O)c1cc(C#N)cc(C)c1NC(=O)c1cc(Cn2nnc(C(F)(F)F)n2)nn1-c1ncccc1Cl [Example 21]
pest or weed control at 100 g/ha ([1]; in Brassica rapa): ≥ 80%
pest or weed control at 100 g/ha ([2]; in Zea mays): ≥ 80%
chromatographic logP ([3]; log P): 2.85
pest or weed control at 100 g/ha [4]: ≥ 80%

chromatographic logP [3, 7]: 3.07
Compound: Cc1cc(C#N)cc(C(=O)NC(C)(C)C)c1NC(=O)c1cc(Cn2nnnc2C(F)(F)F)nn1-c1ncccc1Br [Example 483]
pest or weed control at 100 g/ha [1, 5]: ≥ 80%
pest or weed control at 100 g/ha [2, 6]: ≥ 80%
pest or weed control at 100 g/ha [4]: ≥ 80%

Compound: Cc1cc(C#N)cc(C(=O)NC(C)C)c1NC(=O)c1cc(Cn2nnnc2C(F)F)nn1-c1ncccc1Cl [Example 463]
pest or weed control at 100 g/ha ([1]; in Brassica rapa): ≥ 80%
pest or weed control at 100 g/ha ([2]; in Zea mays): ≥ 80%
chromatographic logP ([3]; log P): 2.36
pest or weed control at 100 g/ha [4]: ≥ 80%

Compound: CC(C)NC(=O)c1cc(Cl)cc(Cl)c1NC(=O)c1cc(Cn2nnc(C(F)F)n2)nn1-c1ncccc1Cl [Example 286]
pest or weed control at 100 g/ha ([1]; in Brassica rapa): ≥ 80%
pest or weed control at 100 g/ha ([2]; in Zea mays): ≥ 80%
chromatographic logP ([3]; log P): 2.91
pest or weed control at 100 g/ha [4]: ≥ 80%

Compound: CNC(=O)c1cc(F)cc(C)c1NC(=O)c1cc(Cn2nnnc2C(F)(F)F)nn1-c1ncccc1Cl [Example 167]
pest or weed control at 100 g/ha ([1]; in Brassica rapa): ≥ 80%
pest or weed control at 100 g/ha ([2]; in Zea mays): ≥ 80%
chromatographic logP ([3]; log P): 2.32
pest or weed control at 100 g/ha [4]: ≥ 80%

chromatographic logP ([3]; reversed-phase HPLC, Zorbax Eclipse C18 column, by HPLC according to EEC Directive 79/831 Annex V.A8, read-out: log P): 2.85
Compound: Cc1cc(C#N)cc(C(=O)NC2CC2)c1NC(=O)c1cc(Cn2nnc(C(F)(F)F)n2)nn1-c1ncccc1Br [Example 333]
pest or weed control at 100 g/ha [1, 5]: ≥ 80%
pest or weed control at 100 g/ha [2, 6]: ≥ 80%
pest or weed control at 100 g/ha [4]: ≥ 80%

Compound: Cc1cc(I)cc(C(=O)NCC#N)c1NC(=O)c1cc(Cn2nnc(C(F)F)n2)nn1-c1ncccc1Cl [Example 281]
pest or weed control at 100 g/ha ([1]; in Brassica rapa): ≥ 80%
pest or weed control at 100 g/ha ([2]; in Zea mays): ≥ 80%
chromatographic logP ([3]; log P): 2.68
pest or weed control at 100 g/ha [4]: ≥ 80%

Compound: CC(NC(=O)c1cc(Cl)cc(Cl)c1NC(=O)c1cc(Cn2nnnc2C(F)F)nn1-c1ncccc1Cl)C1CC1 (centres unmarked) [Example 465]
pest or weed control at 100 g/ha ([1]; in Brassica rapa): ≥ 80%
pest or weed control at 100 g/ha ([2]; in Zea mays): ≥ 80%
chromatographic logP ([3]; log P): 3.02
pest or weed control at 100 g/ha [4]: ≥ 80%

chromatographic logP [3, 7]: 3.54
Compound: Cc1cc(I)cc(C(=O)NC(C)C)c1NC(=O)c1cc(Cn2nnnc2C(F)(F)F)nn1-c1ncccc1C(F)(F)F [Example 450]
pest or weed control at 100 g/ha [1, 5]: ≥ 80%
pest or weed control at 100 g/ha [2, 6]: ≥ 80%
pest or weed control at 100 g/ha [4]: ≥ 80%

Compound: CNC(=O)c1cc(I)cc(C)c1NC(=O)c1cc(Cn2nnc(C(F)(C(F)(F)F)C(F)(F)F)n2)nn1-c1ncccc1Cl [Example 377]
pest or weed control at 100 g/ha ([1]; in Brassica rapa): ≥ 80%
pest or weed control at 100 g/ha ([2]; in Zea mays): ≥ 80%
chromatographic logP ([3]; log P): 3.94
pest or weed control at 100 g/ha [4]: ≥ 80%

Compound: Cc1cc(F)cc(C(=O)NC(C)(C)C)c1NC(=O)c1cc(Cn2nnc(C(F)(F)C(F)(F)F)n2)nn1-c1ncccc1Cl [Example 221]
pest or weed control at 100 g/ha ([1]; in Brassica rapa): ≥ 80%
pest or weed control at 100 g/ha ([2]; in Zea mays): ≥ 80%
chromatographic logP ([3]; log P): 3.88
pest or weed control at 100 g/ha [4]: ≥ 80%

Compound: Cc1cc(C#N)cc(C(=O)NC(C)(C)C)c1NC(=O)c1cc(Cn2nnc(C3CC3)n2)nn1-c1ncccc1Cl [Example 105]
pest or weed control at 100 g/ha ([1]; in Brassica rapa): ≥ 80%
pest or weed control at 100 g/ha ([2]; in Zea mays): ≥ 80%
chromatographic logP ([3]; log P): 2.93
pest or weed control at 100 g/ha [4]: ≥ 80%

Compound: Cc1cc(F)cc(C(=O)NC(C)C)c1NC(=O)c1cc(Cn2nnnc2C(F)(F)F)nn1-c1ncccc1Cl [Example 168]
pest or weed control at 100 g/ha ([1]; in Brassica rapa): ≥ 80%
pest or weed control at 100 g/ha ([2]; in Zea mays): ≥ 80%
chromatographic logP ([3]; log P): 2.76
pest or weed control at 100 g/ha [4]: ≥ 80%

Compound: Cc1cc(C#N)cc(C(=O)NC2CC2)c1NC(=O)c1cc(Cn2nnnc2C(F)(F)C(F)(F)F)nn1-c1ncccc1Cl [Example 445]
pest or weed control at 100 g/ha ([1]; in Brassica rapa): ≥ 80%
pest or weed control at 100 g/ha ([2]; in Zea mays): ≥ 80%
chromatographic logP ([3]; log P): 2.95
pest or weed control at 100 g/ha [4]: ≥ 80%

Compound: Cc1cc(Cl)cc(C(N)=O)c1NC(=O)c1cc(Cn2nnc(C(F)F)n2)nn1-c1ncccc1Cl [Example 304]
pest or weed control at 100 g/ha ([1]; in Brassica rapa): ≥ 80%
pest or weed control at 100 g/ha ([2]; in Zea mays): ≥ 80%
chromatographic logP ([3]; log P): 2.32
pest or weed control at 100 g/ha [4]: ≥ 80%

Compound: Cc1cc(Cl)cc(C(=O)NC(C)C)c1NC(=O)c1cc(Cn2nnnc2C(F)F)nn1-c1ncccc1Cl [Example 462]
pest or weed control at 100 g/ha ([1]; in Brassica rapa): ≥ 80%
pest or weed control at 100 g/ha ([2]; in Zea mays): ≥ 80%
chromatographic logP ([3]; log P): 2.75
pest or weed control at 100 g/ha [4]: ≥ 80%

chromatographic logP [3, 7]: 3.14
Compound: Cc1cc(Cl)cc(C(=O)NC(C)C)c1NC(=O)c1cc(Cn2nnnc2C(F)(F)F)nn1-c1ncccc1Br [Example 485]
pest or weed control at 100 g/ha [1, 5]: ≥ 80%
pest or weed control at 100 g/ha [2, 6]: ≥ 80%
pest or weed control at 100 g/ha [4]: ≥ 80%

Compound: CCNC(=O)c1cc(C#N)cc(C)c1NC(=O)c1cc(Cn2nnnc2C(F)(F)F)nn1-c1ncccc1Cl [Example 191]
pest or weed control at 100 g/ha ([1]; in Brassica rapa): ≥ 80%
pest or weed control at 100 g/ha ([2]; in Zea mays): ≥ 80%
chromatographic logP ([3]; log P): 2.5
pest or weed control at 100 g/ha [4]: ≥ 80%

Compound: CNC(=O)c1cc(I)cc(C)c1NC(=O)c1cc(Cn2nnc(C(F)F)n2)nn1-c1ncccc1Cl [Example 273]
pest or weed control at 100 g/ha ([1]; in Brassica rapa): ≥ 80%
pest or weed control at 100 g/ha ([2]; in Zea mays): ≥ 80%
chromatographic logP ([3]; log P): 2.73
pest or weed control at 100 g/ha [4]: ≥ 80%

Compound: Cc1cc(C#N)cc(C(=O)NCC#N)c1NC(=O)c1cc(Cn2nnc(C(F)F)n2)nn1-c1ncccc1Cl [Example 271]
pest or weed control at 100 g/ha ([1]; in Brassica rapa): ≥ 80%
pest or weed control at 100 g/ha ([2]; in Zea mays): ≥ 80%
chromatographic logP ([3]; log P): 2.19
pest or weed control at 100 g/ha [4]: ≥ 80%

Compound: CNC(=O)c1cc(C#N)cc(C)c1NC(=O)c1cc(C(C)n2nnnc2C(F)(F)F)nn1-c1ncccc1Cl (centres unmarked) [Example 512]
pest or weed control at 100 g/ha ([1]; in Brassica rapa): ≥ 80%
chromatographic logP ([3]; log P): 2.53
pest or weed control at 100 g/ha [4]: ≥ 80%

Compound: CCNC(=O)c1cc(I)cc(C)c1NC(=O)c1cc(Cn2nnc(C(F)(F)F)n2)nn1-c1ncccc1C(F)(F)F [Example 241]
pest or weed control at 100 g/ha [1, 5]: ≥ 80%
pest or weed control at 100 g/ha [2, 6]: ≥ 80%
pest or weed control at 100 g/ha [4]: ≥ 80%

Compound: Cc1cc(I)cc(C(=O)NC2CC2)c1NC(=O)c1cc(Cn2nnc(C(F)(F)F)n2)nn1-c1ncccc1C(F)(F)F [Example 246]
pest or weed control at 100 g/ha [1, 5]: ≥ 80%
pest or weed control at 100 g/ha [2, 6]: ≥ 80%
pest or weed control at 100 g/ha [4]: ≥ 80%

Compound: Cc1cc(Cl)cc(C(N)=O)c1NC(=O)c1cc(Cn2nnc(C(F)(F)F)n2)nn1-c1ncccc1Cl [Example 16]
pest or weed control at 100 g/ha ([1]; in Brassica rapa): ≥ 80%
log P [3]: 2.77
pest or weed control at 100 g/ha [4]: ≥ 80%

Compound: Cc1cc(I)cc(C(=O)NCC#N)c1NC(=O)c1cc(Cn2nnc(C(F)(F)F)n2)nn1-c1ncccc1C(F)(F)F [Example 240]
pest or weed control at 100 g/ha [1, 5]: ≥ 80%
pest or weed control at 100 g/ha [2, 6]: ≥ 80%
pest or weed control at 100 g/ha [4]: ≥ 80%

Compound: Cc1cc(I)cc(C(=O)NC2CC2)c1NC(=O)c1cc(Cn2nnc(C(F)(F)C(F)(F)F)n2)nn1-c1ncccc1Cl [Example 217]
pest or weed control at 100 g/ha ([1]; in Brassica rapa): ≥ 80%
pest or weed control at 100 g/ha ([2]; in Zea mays): ≥ 80%
pest or weed control at 100 g/ha [4]: ≥ 80%

chromatographic logP [3, 7]: 2.53
Compound: Cc1cc(C#N)cc(C(N)=O)c1NC(=O)c1cc(Cn2nnnc2C(F)(F)C(F)(F)F)nn1-c1ncccc1Br [Example 517]
pest or weed control at 100 g/ha [1, 5]: ≥ 80%
pest or weed control at 100 g/ha [4]: ≥ 80%

Compound: Cc1cc(C)c(NC(=O)c2cc(Cn3nnnc3C(F)(F)F)nn2-c2ncccc2Cl)c(C(=O)NC(C)C)c1 [Example 179]
pest or weed control at 100 g/ha ([1]; in Brassica rapa): ≥ 80%
pest or weed control at 100 g/ha ([2]; in Zea mays): ≥ 80%
chromatographic logP ([3]; log P): 2.94

Compound: Cc1cc(C#N)cc(C(=O)NCCC(F)(F)F)c1NC(=O)c1cc(Cn2nnnc2C(F)(F)F)nn1-c1ncccc1Cl [Example 188]
pest or weed control at 100 g/ha ([1]; in Brassica rapa): ≥ 80%
chromatographic logP ([3]; log P): 2.88
pest or weed control at 100 g/ha [4]: ≥ 80%
